Numbers after ± are expanded uncertainties.

For the data set the following is noted: 298 K; Liquid; Gas chromatography.
Usually vapor or sublimation pressure stands for the pressure of vapour in equilibrium with the condensed phase. Turning to `O=P(Oc1ccccc1)(Oc1ccccc1)Oc1ccccc1` [triphenyl phosphate], the “vapor or sublimation pressure” value amounted to 2.7e-07 ± 2e-07 kPa.

As to `CC(CCl)OP(=O)(OC(C)CCl)OC(C)CCl` (stereo unspecified) [tris(1-chloro-2-propyl) phosphate], the “vapor or sublimation pressure” value is recorded as 3.5e-05 ± 1.7e-05 kPa.

`Cc1ccccc1OP(=O)(Oc1ccccc1C)Oc1ccccc1C` [tri-2-tolyl phosphate]: the “vapor or sublimation pressure” value is recorded as 5.1e-08 ± 2.6e-08 kPa.

Turning to `O=P(OCCCl)(OCCCl)OCCCl` [tris(2-chloroethyl) phosphate], the “vapor or sublimation pressure” value worked out at 4.8e-05 ± 2.2e-05 kPa.

Consider `Cc1cccc(OP(=O)(Oc2cccc(C)c2)Oc2cccc(C)c2)c1` [tri-m-tolyl phosphate], for which the “vapor or sublimation pressure” value was 2.1e-08 ± 1.8e-08 kPa.

As to `CC(C)c1ccccc1OP(=O)(Oc1ccccc1C(C)C)Oc1ccccc1C(C)C` [tris(2-(1-methylethyl)-phenol) phosphate], the “vapor or sublimation pressure” value is given as 6e-09 ± 9e-09 kPa.

Turning to `Cc1ccc(OP(=O)(Oc2ccc(C)cc2)Oc2ccc(C)cc2)cc1` [phosphoric acid, tri-p-cresyl ester], the “vapor or sublimation pressure” value is on record as 1.1e-08 ± 1.2e-08 kPa.

Regarding `O=P(OC(CCl)CCl)(OC(CCl)CCl)OC(CCl)CCl` [tris(1,3-dichloro-2-propanol) phosphate], the “vapor or sublimation pressure” value came to 4.1e-07 ± 2.8e-07 kPa.

Regarding `CCCCC(CC)COP(=O)(OCC(CC)CCCC)OCC(CC)CCCC` (stereo unspecified) [tris(2-ethylhexyl) phosphate], the “vapor or sublimation pressure” value was found to be 2.1e-08 ± 1.8e-08 kPa.

For the molecule `CCCCOCCOP(=O)(OCCOCCCC)OCCOCCCC` [tris(2-butoxyethyl) phosphate], the “vapor or sublimation pressure” value was found to be 4.9e-08 ± 3.8e-08 kPa.

With `CCCCC(CC)COP(=O)(Oc1ccccc1)Oc1ccccc1` (stereo unspecified) [2-ethylhexyl diphenyl phosphate], the “vapor or sublimation pressure” value is 8.9e-08 ± 6.3e-08 kPa.

(Values after the NIST ThermoML archive (doi:10.1021/je401026a).)
